According to US20260297136A1, “PEPTIDES WITH LIPOLYTIC, ANTI-LIPOGENIC, ANTIFIBROTIC AND ANTI-INFLAMMATORY ACTIVITY” (FUNDACIÓ HOSPITAL UNIVERSITARI VALL D'HEBRON - INSTITUT DE …, priority 2023, published 2026):

Experiments:
[1] = test system: human mature adipocytes; assay: Lipolysis in human mature adipocytes (glycerol production), Example 3; format: cell-based; conditions: 16 h
Description: FIG. 4 Mature human subcutaneous adipocytes were treated with vehicle (DMSO), 1 μM of Isoproterenol, Semaglutide (10 nM) or GP6 (25, 50 or 100 μg/ml) for 16 h. Glycerol concentration was assessed using a Lipolysis Assay Kit (Tebu-bio).
Human preadipocytes and cell culture reagents were from purchased from Tebu-Bio (Tebu-bio, Barcelona, Spain) and differentiation protocol was done following the manufacturer's instructions. Human adipocytes were maintained in a humidified incubator with 5% CO2 at 37° C. (Sex hormone-binding globulin overexpression protects against high-fat diet-induced obesity in transgenic male mice. Saez-Lopez C, Villena J A, Simo R, Selva D M. J Nutr Biochem. 2020 November; 85:108480. doi: 10.1016/j.jnutbio.2020.108480).
Lipolysis assays were performed using a Lipolysis Kit (Tebu-Bio) following the manufacturer's instructions as previously described by Saez-Lopez and collaborators (Sex hormone-binding globulin overexpression protects against high-fat diet-induced obesity in transgenic male mice. Saez-Lopez C, Villena J A, Simo R, Selva D M. J Nutr Biochem. 2020 November; 85:108480. doi: 10.1016/j.jnutbio.2020.108480.)

[2] = test system: obesity and fatty liver disease mouse model; assay: Therapeutic effects in an obesity and fatty liver disease mouse model, Example 6; format: in vivo, C57BL6/J male mice
Description: (§1) C57BL6/J male mice were purchased and kept for quarantine and acclimatization for a period of about 7 days before initiation of every experiment. Mice were housed in clean and sterilized mice cages and maintained in a controlled environment with 22+3° C. temperature, 50+20% humidity, a light/dark cycle of 12 hours each and 15-20 fresh air changes per hour.
For Obesity and NAFLD induction, the animals were fed ad libitum, either with chow diet (150SP-10, Safe Diets) or 45% high-fat diet (TD.190179, Envigo) plus 30% fructose (F0127, Sigma Aldrich) in drinking water for 20 weeks. The therapeutic effect of a daily subcutaneous injection of GP6 (20 mg/kg/day) in this mouse model was assessed for 10 weeks, starting the treatment on week 10 of the experiment until week 20.
A group of control mice (n=10) was fed with control diet and regular drinking water and a group of mice (n=30) obesity and fatty liver disease was induced for 10 weeks. At this point, mice were randomly divided in three groups of n=10, the first group was treated with daily subcutaneous injections of vehicle (water), the second group was treated with Telmisartan (5 mg/kg/day) in the drinking water and a subcutaneous injection of vehicle, and the third group with daily subcutaneous injection of GP6 (20 mg/kg/day) during 10 weeks.
At the end of the experiment mice were sacrificed, serum samples were extracted, tissues were weighted and part was fixed in paraformaldehyde for histology studies and part immediately frozen at −80 C for mRNA and protein expression studies as well as assessment of triglycerides.
The histology studies, AST and ALT measurements, TG measurements, and the RNA analysis were performed as described in Example 4.

[3] = test system: CCl4-induced fibrosis mouse model; assay: Preventive effects in a CCl4-induced fibrosis mouse model, Example 5; format: in vivo, C57BL6/J male mice; conditions: 20 mg/kg/day sc, vs vehicle
Description: as §1
Preventive effect of a daily subcutaneous injection of GP6 (20 mg/kg/day) in a mouse model of fibrosis induced by twice a week intraperitoneal injection of CCl4 (1 ml/Kg diluted in olive oil 1:5) during a 4 weeks period. A group of control mice (n=6) was treated with daily subcutaneous injections of vehicle (water) and the other group (n=10) with daily subcutaneous injection of GP6 (20 mg/kg/day) during 10 weeks.
At the end of the experiment mice were sacrificed, serum samples were extracted, tissues were weighted and part was fixed in paraformaldehyde for histology studies and part immediately frozen at −80 C for mRNA and protein expression studies.
The Histology studies, AST and ALT measurements as well the RNA analysis were performed as described in example 4.

[4] = 20 mg/kg/day sc, 10 weeks, vs vehicle
[5] = 20 mg/kg/day sc, 10 weeks, blind pathologist, lipid reduction corroborated

SMILES: CC[C@@H](C)[C@@H](NC(=O)[C@H](NC(=O)CNC(=O)[C@@H](CCC(=O)O)NC(=O)[C@H]1CCCN1C(=O)[C@@H](CC(=O)O)NC(=O)[C@@H](Cc1c[nH]c2ccccc12)NC(=O)[C@H](NC(=O)[C@@H](CCCNC(=N)N)NC(=O)[C@H](NC(=O)[C@@H](CCC(=O)O)NC(=O)[C@@H](Cc1ccccc1)NC(=O)[C@@H](CO)NC(=O)[C@@H](CO)NC(=O)[C@@H](CO)NC(=O)[C@H](NC(=O)[C@@H](CCCCN)NC(=O)[C@H](N)[C@H](C)O)[C@H](C)O)C(C)C)[C@H](C)O)C(C)C)C(=O)N[C@H](Cc1ccccc1)C(=O)N[C@H](Cc1ccc(O)cc1)C(=O)O [GP6]
- increase of glycerol production (lipolysis) ([1]; 25 μg/ml): 200%
- increase of glycerol production (lipolysis) ([1]; 50 μg/ml): 270%
- increase of glycerol production (lipolysis) ([1]; 100 μg/ml): 315%
- lipolysis induction compared with Semaglutide ([1]; GP6 25, 50 or 100 μg/ml versus Semaglutide 10 nM): performing more efficiently than Semaglutide
- AST serum levels ([2]; 20 mg/kg/day sc, 10 weeks): reduced significantly
- hepatic fibrosis (picrosirius staining) ([2]; 20 mg/kg/day sc, 10 weeks): did not showed hepatic fibrosis
- total body weight gain ([2]; 20 mg/kg/day sc, 10 weeks): reducing total body weight gain
- reduction of hepatic lipid accumulation compared with Telmisartan ([2]; 20 mg/kg/day sc, 10 weeks, vs Telmisartan 5 mg/kg/day): to a greater extend than Telmisartan treatment
- Total body weight versus control mice ([2]; 20 mg/kg/day sc, 10 weeks, vs control diet mice): not significantly heavier than control mice
- ACC mRNA levels in hepatic tissue [2, 4]: reduced the mRNA levels
- Col1A1 expression in hepatic tissue [2, 4]: reduced expression levels
- F480 mRNA levels (adipose tissue inflammation) [2, 4]: reduced expression
- F480 mRNA levels in hepatic tissue [2, 4]: reduced expression
- IL1β expression (adipose tissue inflammation) [2, 4]: reduced expression
- PPARγ mRNA levels in hepatic tissue [2, 4]: reduced the mRNA levels
- TGFβ1 expression in hepatic tissue [2, 4]: reduced expression levels
- adipose tissue fibrosis (Col1A mRNA expression) [2, 4]: reduced adipose tissue fibrosis
- heart fibrosis (Col1A1 mRNA expression) [2, 4]: reduced heart fibrosis
- hepatic expression of TNFα [2, 4]: reduced the hepatic expression
- liver triglyceride (TAG) content [2, 4]: reduced significantly
- liver weight [2, 4]: reduced significantly
- serum glucose levels [2, 4]: reduced the increase glucose levels
- hepatic lipid accumulation (histology) ([2]; 20 mg/kg/day sc, 10 weeks, vs vehicle, H&E): reduced significantly
- Brunt score [2, 5]: corroborated
- Steatosis score [2, 5]: corroborated
- Alanine transaminase (ALT) serum levels ([2]; sc, as stated in the summary for Example 6): reduction
- liver weight [3]: did not show any significance between groups
- reduction of ALT serum levels [3]: ~50%
- reduction of Collagen (Col1A1) expression in hepatic tissue [3]: more than 50%
- reduction of hepatic fibrosis (picrosirius staining, ImageJ) [3]: approximately 37%
- reduction of hepatic inflammation (F4/80 mRNA levels) [3]: more than 50%
- total body weight lost induced by CCl4 [3]: mice treated with vehicle lost more body weight when compared with GP6 treated mice
